The text below walks through data of patent publication US12479834B2, “Phenol compound or salt thereof” (TAIHO PHARMACEUTICAL CO., LTD., priority 2019, dated 2025).

In one experiment the target is T1, G12C K-Ras4B (1-169) (Homo sapiens, UniProt P01116, G12C).
T1 construct: G12C K-Ras4B (1-169) protein, which was a KRAS G12C mutant; His tag (N, cleaved yes); made in house; host or cells: E. coli BL21 (DE3)
Briefly: Binding to KRAS G12C mutant, compound binding rate by LC-MS. Conditions: final compound concentration 2 μM, 1 μM protein, 2 hours at 25° C. The text has this:
K-Ras4B (1-169) protein was expressed in E. coli strain BL21 (DE3) by synthesizing a nucleotide sequence encoding the amino acid sequence represented by GenPept ID NP_004976 as a sequence optimized for E. coli by use of GeneArt Technology (Life Technologies Corp.) such that the protein was N-terminally His-tagged and fused with a TEV protease recognition sequence (ENLYFQG). The expressed His-tagged K-Ras4B (1-169) was purified through a Ni column, then cleaved at its tag with N-terminally His-tagged TEV protease, and passed through a Ni column again to recover a flow-through fraction, which was further purified by anion-exchange chromatography to obtain the protein. G12C K-Ras4B (1-169) protein, which was a KRAS G12C mutant, was obtained in the same way as in the K-Ras4B(1-169) protein except that glycine at position 12 of the amino acid sequence represented by GenPept ID NP_004976 was mutated to cysteine.
The K-Ras4B (1-169) protein and the G12C K-Ras4B (1-169) protein were mixed and diluted with a buffer solution (1×TBS and 0.1 mM TCEP) to prepare a protein solution containing 1 μM each of the proteins. Each test compound was dissolved at 10 mM in DMSO and further diluted 10-fold with DMSO to make a 1 mM solution. Then, the solution was diluted 5-fold with DMSO to make a 200 μM solution. The 200 μM solution was further diluted 5-fold to make a […] solution. 1 μL of the 40 μM test compound was added to 19 μL of the 1 μM protein solution such that the final compound concentration was 2 μM. The mixture was stored for 2 hours in an incubator of 25° C., and the reaction was terminated by the addition of 80 μL of a 1×TBS solution containing 0.2% formic acid, followed by LC-MS measurement.
The LC-MS measurement was performed by using Xevo G2-S Q-Tof manufactured by Waters Corp., performing reverse-phase chromatography with a desalting column, and obtaining mass spectra of positive ions by electrospray. For the mass spectra, spectra of polyvalent ions were collectively converted to molecular weights by the MaxEnt technique using OpenLynx software, and then, a compound binding rate was obtained from the ratio of […].
The binding rates of test compounds having a final compound concentration of 2 μM for G12C K-Ras4B (1-169) are shown in the table below. The binding rate for G12C K-Ras4B (1-169) is rated “A” for 80% or more, “B” for 60% or more and less than 80%, “C” for 40% or more and less than 60%, “D” for 20% or more and less than 40%, and “E” for less than 20%.

The target of the next experiment is T2, KRAS G12C mutant (Homo sapiens, UniProt P01116, G12C).
T2 construct: 50 μM G12C K-Ras4B (1-169) protein and 1 mM BODIPY® FL GDP; His tag (N, cleaved yes); made in house; host or cells: E. coli BL21 (DE3)
Briefly: Inhibition of SOS1-mediated nucleotide (GDP-GTP) exchange reaction of KRAS G12C mutant, BODIPY FL GDP fluorescence. Format: biochemical. Conditions: preincubated 25° C. 4 hours with 25 nM KRAS G12C bound with BODIPY FL GDP; SOS1 100 nM, GppNHp 1 μM, 30 minutes. From the text:
SOS1 protein was expressed in E. coli strain BL21 (DE3) by synthesizing a nucleotide sequence encoding the amino acid sequence represented by GenPept ID NP_005624 as a sequence optimized for E. coli by use of GeneArt Technology (Life Technologies Corp.) such that the protein was N-terminally His-tagged and fused with a TEV protease recognition sequence (ENLYFQG). The expressed His-tagged SOS1 (564-1049) was purified through a Ni column, then cleaved at its tag with N-terminally His-tagged TEV protease, and passed through a Ni column again to recover a flow-through fraction to obtain the protein.
Each compound was studied for its inhibitory effect on the exchange reaction of GDP into GppNHp in BODIPY® FL bound with the KRAS G12C mutant by fluorescence measurement using the G12C K-Ras4B (1-169) protein and the SOS1 protein.
For the preparation of the KRAS G12C mutant bound with BODIPY® FL GDP, first, 50 μM G12C K-Ras4B (1-169) protein and 1 mM BODIPY® FL GDP (Invitrogen Corp., G22360) were incubated for 1 hour in a buffer solution (20 mM Tris-HCl (pH 7.5), 50 mM NaCl, and 1 mM DTT) in ice in the presence of 2.5 mM EDTA. Then, MgCl2 was added thereto at a final concentration of 10 mM, then the mixture was incubated at room temperature for 30 minutes, and then, the protein was passed through a NAP-5 column for removal of free nucleotides and used for compound evaluation.
For the measurement of the inhibitory activity of compounds against nucleotide exchange reaction, first, the compound of the present invention was serially diluted with DMSO. Subsequently, the serially diluted solution of the compound of the present invention in DMSO (final concentration of DMSO: 5%) and the KRAS G12C mutant (25 nM) bound with BODIPY® FL GDP were added into a reaction buffer solution (20 mM Tris-HCl (pH 7.5), 100 mM NaCl, 1 mM MgCl2, 2 mM DTT, and 0.1% Tween 20), and the mixture was preincubated at 25° C. for 4 hours. Then, Son of Sevenless Homolog 1 (SOS1, amino acid region: 564-1049) and GppNHp (GMPPNP, Jena Bioscience GmbH, NU-401-50) were added thereto at final concentrations of 100 nM and 1 μM, respectively, and the mixture was reacted for 30 minutes. The change in fluorescence intensity of BODIPY® FL (excitation wavelength: 485 nm, fluorescence wavelength: 520 nm) between immediately after the start of reaction and after 30 minutes from the start of reaction was standardized, and then, the compound concentration at which 50% inhibition was achieved was calculated as IC50 (nM) when the signal value for only DMSO was defined as 0% inhibition and the signal value for no addition of GppNHp was defined as 100% inhibition.

As to `Cc1nc(CNc2cc(C(C)(C)C)c(Cl)cc2O)sc1C(=O)NC1CN(C(=O)/C=C/CN(C)C)C1` [Example 88, (E)-2-(((5-(tert-Butyl)-4-chloro-2-hydroxyphenyl)amino)methyl)-N-(1-(4-(dimethylamino)but-2-enoyl)azetidin-3-yl)-4-methylthiazole-5-carboxamide], the “binding rate for G12C K-Ras4B (1-169)” value at G12C K-Ras4B (1-169) is “C (40% or more and less than 60%)”. For the same molecule, on KRAS G12C mutant, the IC50 came to 109 nM.
`C=CC(=O)N1CC(NC(=O)c2cnc(CNc3cc(C(C)(C)C)c(Cl)cc3O)s2)C1` [Example 9, N-(1-Acryloylazetidin-3-yl)-2-(((5-(tert-butyl)-4-chloro-2-hydroxyphenyl)amino)methyl)thiazole-5-carboxamide]: the “binding rate for G12C K-Ras4B (1-169)” value at G12C K-Ras4B (1-169) is “A (80% or more)”. Moreover, the IC50 at KRAS G12C mutant stood at 39 nM.
In the case of `C=CC(=O)N1CC(NC(=O)c2cnc(C(O)c3cc(C(C)(C)C)c(Cl)cc3O)n2C)C1` (centres unmarked) [Example 98, N-(1-Acryloylazetidin-3-yl)-2-((5-(tert-butyl)-4-chloro-2-hydroxyphenyl) (hydroxy)methyl)-1-methyl-1H-imidazole-5-carboxamide], on G12C K-Ras4B (1-169), the “binding rate for G12C K-Ras4B (1-169)” value was “B (60% or more and less than 80%)”. Besides, at KRAS G12C mutant, the IC50 came out at 205 nM.
As to `C=CC(=O)N1CC(N(C)C(=O)c2sc(CNc3cc(C(C)(C)C)c(Cl)cc3O)nc2C)C1` [Example 35, N-(1-Acryloylazetidin-3-yl)-2-(((5-(tert-butyl)-4-chloro-2-hydroxyphenyl)amino)methyl)-N,4-dimethylthiazole-5-carboxamide], the “binding rate for G12C K-Ras4B (1-169)” value at G12C K-Ras4B (1-169) is recorded as “E (less than 20%)”. The molecule further registered an IC50 against KRAS G12C mutant of 463 nM.
On to `C=CC(=O)N1CC(NC(=O)c2cnc(CNc3cc4c(cc3O)CCC4(C)C)n2C)C1` [Example 71, N-(1-Acryloylazetidin-3-yl)-2-(((6-hydroxy-3,3-dimethyl-2,3-dihydro-1H-inden-5-yl)amino)methyl)-1-methyl-1H-imidazole-5-carboxamide], for which, at G12C K-Ras4B (1-169), the “binding rate for G12C K-Ras4B (1-169)” value is “C (40% or more and less than 60%)”. Moreover, 221 nM corresponded to half-maximal inhibition against KRAS G12C mutant (IC50).
With `C=CC(=O)N1CC(NC(=O)c2c(C)nc(Cc3cc(C(C)(C)C)c(F)cc3O)n2C)C1` [Example 94, N-(1-Acryloylazetidin-3-yl)-2-(5-(tert-butyl)-4-fluoro-2-hydroxybenzyl)-1,4-dimethyl-1H-imidazole-5-carboxamide], the “binding rate for G12C K-Ras4B (1-169)” value on G12C K-Ras4B (1-169) was “C (40% or more and less than 60%)”. The molecule also registered a half-inhibitory concentration (IC50) on KRAS G12C mutant of 170 nM.
Turning to `C=CC(=O)N1CC(NC(=O)c2cncc(CNc3cc(C(C)(C)C)c(Cl)cc3O)c2)C1` [Example 17, N-(1-Acryloylazetidin-3-yl)-5-(((5-(tert-butyl)-4-chloro-2-hydroxyphenyl)amino)methyl)nicotinamide], the “binding rate for G12C K-Ras4B (1-169)” value on G12C K-Ras4B (1-169) is “D (20% or more and less than 40%)”. On KRAS G12C mutant, this molecule registered an IC50 of 2070 nM.
Consider `C=CC(=O)N1CC(NC(=O)c2ccc(CNc3cc(C(C)C)c(Cl)cc3O)o2)C1` [Example 48, N-(1-Acryloylazetidin-3-yl)-5-(((4-chloro-2-hydroxy-5-isopropylphenyl)amino)methyl)furan-2-carboxamide], for which, on G12C K-Ras4B (1-169), the “binding rate for G12C K-Ras4B (1-169)” value was “D (20% or more and less than 40%)”. This molecule also displayed an IC50 on KRAS G12C mutant of 3970 nM.
Take `C=CC(=O)N1CC(NC(=O)c2cc(CNc3cc(C(C)(C)C)c(Cl)cc3O)ccn2)C1` [Example 16, N-(1-Acryloylazetidin-3-yl)-4-(((5-(tert-butyl)-4-chloro-2-hydroxyphenyl)amino)methyl)picolinamide]: the “binding rate for G12C K-Ras4B (1-169)” value on G12C K-Ras4B (1-169) is listed as “A (80% or more)”. On KRAS G12C mutant, this molecule came in with an IC50 of 3010 nM.
For the molecule `C=CC(=O)N1CC(NC(=O)c2ccc(CNc3cc(C(C)(C)C)ccc3O)o2)C1` [Example 66, N-(1-Acryloylazetidin-3-yl)-5-(((5-(tert-butyl)-2-hydroxyphenyl)amino)methyl)furan-2-carboxamide], at G12C K-Ras4B (1-169), the “binding rate for G12C K-Ras4B (1-169)” value is “E (less than 20%)”. At KRAS G12C mutant, 9800 nM corresponded to half-maximal inhibition (IC50).
